We go through 29 compounds from ChEMBL document CHEMBL3745611 (J Med Chem, 2015).

The structures appear in SMILES notation. Converted amounts (≈) assume the structure as drawn. The source made the active and inactive calls. The rule behind the calls is not given here.

Series [1] deals with T1, Transitional endoplasmic reticulum ATPase (Homo sapiens, UniProt P55072).
Description: Inhibition of human p97 ATPase incubated for 15 mins by ADP Glo luminescence assay
In series [2] the test system is A549. The series is described as follows: cells. As to conditions: Homo sapiens, A549, 72 h.
Description: Cytotoxicity against human A549 cells assessed as cell viability after 72 hrs by Celltiter-Glo assay
The target in series [3] is T1, Transitional endoplasmic reticulum ATPase. As to the kind of experiment: Inhibition of p97 ATPase (unknown origin).
The target is the same in series [4]. The source holds these as a separate data set.
Description: Inhibition of p97 ATPase in human A549 cells assessed as accumulation of K48 poly-ubiquitinated proteins incubated for 6 hrs by immunofluorescence assay
Series [5] in a line: Aqueous solubility of compound. It is filed as physicochemical. The conditions noted are these: aqueous medium.
The subject of series [6] is A549. As to the kind of experiment: Drug uptake in human A549 cells xenografted in mouse at 150 mg/kg, po measured at 2 to 24 hrs. It is filed as ADME, organism-based. As to conditions: in vivo. A general note: In xenograft studies the graft and the host belong to different species.
The next series concerns Plasma. The series is described as follows: Drug uptake in plasma of mouse xenografted with human A549 cells at 150 mg/kg, po measured at 2 to 24 hrs. It is filed as ADME, organism-based. The conditions noted are these: in vivo.
Series [7] has as its system HCT-116. As to the kind of experiment: Antitumor activity against human HCT116 cells xenografted in nude mouse assessed as tumor growth inhibition at 50 mg/kg, po q2d for 12 days. It is filed as functional, organism-based.
Series [8] can be described thus: Half life in mouse liver microsomes. It is filed as ADME. As to conditions: for half-life: liver microsomes. Background: Liver microsomes are vesicles of endoplasmic reticulum, rich in cytochrome P450 enzymes.
For series [9], the target named is T1, Transitional endoplasmic reticulum ATPase. As to the kind of experiment: Inhibition of p97 ATPase in human A549 cells assessed as reduction in p62 protein incubated for 6 hrs by immunofluorescence assay. In kind it is cell-based.
Series [10] shares this target. This is another data set of the same source.
Description: Inhibition of p97 ATPase in human A549 cells assessed as accumulation of CHOP poly-ubiquitinated proteins incubated for 6 hrs by immunofluorescence assay
A short description of series [11]: Half life in mouse hepatocytes.
Series [12] in a line: Mean residence time in mouse at 3 mg/kg, iv. As to conditions: in vivo.
A short description of series [13]: in vivo. The conditions noted are these: mouse, po, 25 mg/kg.
Description: Tmax in mouse at 25 mg/kg, po
The nature of series [14]: Apparent permeability from apical to basolateral side in human Caco2 cells. The conditions noted are these: Caco-2. For orientation: Caco-2 monolayers are a common model of the intestinal barrier.
Series [15] can be described thus: Mean residence time in mouse at 25 mg/kg, po. The conditions noted are these: in vivo.
Series [16] can be described thus: in vivo. The conditions noted are these: mouse, po, 25 mg/kg. This is another data set of the same source.
Description: Cmax in mouse at 25 mg/kg, po
Series [17] is described as follows: Metabolic stability of compound in mouse liver microsomes. It is filed as ADME.
Series [18] relates to HCT-116. The series is described as follows: Antitumor activity against human HCT116 cells xenografted in nude mouse assessed as tumor growth inhibition at 300 mg/kg, po qd. In kind it is functional, organism-based.
Series [19] concerns A549. As to the kind of experiment: Antitumor activity against human A549 cells xenografted in […] SCID beige mouse assessed as tumor growth inhibition at 1 mg/kg, iv administered twice per week. It is filed as functional, organism-based.
Another series relates to AMO1. As to conditions: Homo sapiens.

T1 sequence (P55072 whole entry): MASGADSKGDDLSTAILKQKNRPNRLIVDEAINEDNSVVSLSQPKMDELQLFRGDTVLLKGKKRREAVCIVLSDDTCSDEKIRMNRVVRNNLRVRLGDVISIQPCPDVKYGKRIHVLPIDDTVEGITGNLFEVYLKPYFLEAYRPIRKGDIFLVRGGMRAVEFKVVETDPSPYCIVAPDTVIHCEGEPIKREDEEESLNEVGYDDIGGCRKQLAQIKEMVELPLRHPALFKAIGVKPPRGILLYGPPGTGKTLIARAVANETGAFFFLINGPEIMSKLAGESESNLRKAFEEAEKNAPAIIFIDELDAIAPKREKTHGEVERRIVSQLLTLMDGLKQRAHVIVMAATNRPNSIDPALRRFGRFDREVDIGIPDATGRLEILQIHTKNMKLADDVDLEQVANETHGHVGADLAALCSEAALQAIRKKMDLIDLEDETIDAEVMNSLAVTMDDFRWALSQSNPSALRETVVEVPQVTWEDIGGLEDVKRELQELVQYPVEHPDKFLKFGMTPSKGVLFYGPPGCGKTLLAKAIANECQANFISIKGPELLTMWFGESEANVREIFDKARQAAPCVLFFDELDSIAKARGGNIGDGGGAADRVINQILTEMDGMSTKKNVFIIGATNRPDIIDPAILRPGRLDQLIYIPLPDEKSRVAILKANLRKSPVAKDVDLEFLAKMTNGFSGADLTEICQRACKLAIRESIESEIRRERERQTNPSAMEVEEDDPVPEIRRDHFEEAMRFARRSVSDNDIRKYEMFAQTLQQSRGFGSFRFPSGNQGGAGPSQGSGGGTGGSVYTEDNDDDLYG
Description for AMO1: Antitumor activity against human AMO1 cells xenografted in nude SCID beige mouse assessed as tumor growth inhibition at 1 mg/kg, iv administered twice per week

Regarding `Cc1cc2c(Cl)cccc2n1-c1nc2c(c(NCc3ccccc3)n1)CNCC2`, the IC50 (as a rule, the concentration at which inhibition is half-maximal) in [1] came to 0.632 µM; in the series on A549 [2] it was 7.24 µM.
`O=C(CCl)Nc1cccc(NC2=NS(=O)(=O)c3ccccc32)c1` came in with a half-maximal inhibitory concentration (IC50) in series [3] of 0.37 µM.
Regarding `Cc1cc2c(C(N)=O)cccc2n1-c1nc2c(c(NCc3ccccc3)n1)CCCC2`, the half-inhibitory concentration (IC50) stood at 0.5 µM in series [4]; 0.006 µM in [1]; 0.59 µM with A549 [2]; 0.25 µM in [9] (read-out: IC50); 0.58 µM in series [10]. Besides, the solubility (commonly the concentration that dissolves in the medium under given conditions) in [5] was 4 µg/mL (≈ 9.72 µM). The Drug uptake entry in the series with A549 [6] and in the series with Plasma was “Active” each time. Besides, the TGI entry in the series on HCT-116 [7] is “Active”. For the same compound, the half-life – broadly, the time in which the quantity being followed falls by half – in [8] came out at 44 min.
Turning to `Cc1cc2c(-c3nnn[nH]3)cccc2n1-c1nc2c(c(NCc3ccccc3)n1)CNCC2`, the IC50 in series [1] was 0.015 µM; with A549 [2], > 40 µM.
For `NCc1cc2ccccc2n1-c1nc2c(c(NCc3ccccc3)n1)CCCC2`, in that order: 0.153 µM and 4.7 µM.
Take `Cc1cc2ccccc2n1-c1nc2c(c(NCc3ccccc3)n1)CCCC2`: the results for the 50% inhibitory concentration (IC50) (in series [1]; in the series on A549 [2]) were 0.047 µM and 6.53 µM, respectively.
Take `CNC(=O)c1cccc2c1cc(C)n2-c1nc2c(c(NCc3ccccc3)n1)CNCC2`: the IC50 in [1] came to 0.215 µM; in the series with A549 [2], 6.03 µM.
Take `COc1cccc2c(NCc3ccccc3)nc(-n3c(N)nc4ccccc43)nc12`: the IC50 in series [4] was 6.14 µM; in series [1], 0.815 µM; in the series on A549 [2] it was 3.26 µM; in series [9] (a549), “Not Active”; in [10], 6.61 µM. The solubility in series [5] is < 1 µg/mL. This compound showed a half-life in [8] of 7 min.
Take `Cc1cc2c(C(=O)O)cccc2n1-c1nc2c(c(NCc3ccccc3)n1)CNCC2`: the results for the IC50 (in series [1]; in the series on A549 [2]) were 0.095 µM and > 40 µM, respectively.
For `Cc1cccc2c1cc(C)n2-c1nc2c(c(NCc3ccccc3)n1)CNCC2`, in that order: 0.648 µM and 7.85 µM.
Turning to `Cc1cc2c(C(N)=O)cccc2n1-c1nc2c(c(NCc3ccccc3)n1)CCNC2`, the results for the half-inhibitory concentration (IC50) (in series [1]; in the series on A549 [2]) were 0.071 µM and 2.44 µM, respectively.
For `Cc1nc2ccccn2c1-c1nc2c(c(NCc3ccccc3)n1)CCCC2`, in that order: 0.248 µM and 18.2 µM.
As for `Cc1cc2c(C(N)=O)cccc2n1-c1nc2c(c(NCc3ccccc3)n1)CNCC2`, the IC50 in series [4] was 1.79 µM; in [1], 0.04 µM; in the series with A549 [2], 2.33 µM; in series [9] (read-out: IC50), 2 µM; in [10], 2.86 µM. The amount in solution in series [5] (solubility) came to 1260 µg/mL (≈ 3040 µM). Further, the half-life in [8] was 105 min.
Consider `Cc1cc2c(C(N)=O)cccc2n1-c1nc2c(c(NCc3ccccc3)n1)CCOC2`, for which the IC50 in the series on A549 [2] was determined as 1.07 µM.
Turning to `COCc1cc2ccccc2n1-c1nc2c(c(NCc3ccccc3)n1)CCCC2`, the half-maximal inhibitory concentration (IC50) in series [1] was 0.795 µM; with A549 [2], > 40 µM.
As to `Cc1cc2c(C(N)=O)cccc2n1-c1nc2c(c(NCc3ccccc3)n1)COCC2` [CB-5083], the concentration in solution in [5] (solubility) was 32 µg/mL (≈ 77.4 µM). In addition, in [11], the half-life turned out to be 172 min. The Drug uptake result in the series on A549 [6] and with Plasma was “Active” each time. Further, the MRT (commonly the average time that molecules of a dose stay in the body) in [12] came to 70.2 min; in series [15], 183 min. The Tmax (as a rule, the time at which the peak concentration occurs) in the series “in vivo [13]” was found to be 30 min. In addition, the apparent permeability from apical to basolateral (Papp A→B) (usually the apparent permeability from the apical to the basolateral side of a cell layer) in series [14] was 52.4 ×10⁻⁶ cm/s. For the same compound, in the series “in vivo [16]”, the peak level (Cmax) was 7.95 µM.
In the case of `Cc1cc2ccccc2n1-c1nc2c(c(NCc3ccccc3)n1)CNCC2`, the IC50 in series [4] is 15.3 µM; in series [1], 0.192 µM; with A549 [2] it was 8.64 µM; in series [9] (a549), “Not Active”; in series [10], 9.15 µM. Moreover, the concentration in solution in series [5] (solubility) was 750 µg/mL (≈ 2030 µM). Besides, the t1/2 result in [8] (microsomes) is given as “Stable”. Further, in [17], the Stability result is “Stable”.
In the case of `COc1nc2ccccc2n1-c1nc2c(c(NCc3ccccc3)n1)CCCC2`, the IC50 is 4.24 µM in series [4]; 0.076 µM in [1]; 7.45 µM with A549 [2]; 4.84 µM in series [9] (read-out: IC50); 9.34 µM in series [10]. The solubility in series [5] is < 1 µg/mL. Besides, in the series with HCT-116 [18], the TGI entry was “Active”. The half-life in series [8] was 11 min.
For `Cc1[nH]c2ccccc2c1-c1nc2c(c(NCc3ccccc3)n1)CCCC2`, the concentration for half-maximal inhibition (IC50) was 0.149 µM in series [1] and 15.8 µM with A549 [2].
In the case of `Cc1cc2c(F)cccc2n1-c1nc2c(c(NCc3ccccc3)n1)CNCC2`, the 50% inhibitory concentration (IC50) in series [1] is 0.342 µM; in the series on A549 [2], 6.28 µM.
On to `Cc1cc2c(C#N)cccc2n1-c1nc2c(c(NCc3ccccc3)n1)CNCC2`, for which the figures for the IC50 (in series [1]; in the series with A549 [2]) were 0.144 µM and 8.92 µM, respectively.
The corresponding values for `FC(F)(F)c1cc2ccccc2n1-c1nc2c(c(NCc3ccccc3)n1)CCCC2` are 0.651 µM and > 40 µM.
With `Cc1nn2ccccc2c1-c1nc2c(c(NCc3ccccc3)n1)CCCC2`, the results for the IC50 (in [1]; in the series on A549 [2]) were 0.367 µM and 25 µM, respectively.
As to `OCc1cc2ccccc2n1-c1nc2c(c(NCc3ccccc3)n1)CCCC2`, the IC50 in series [1] was found to be 0.068 µM; in the series with A549 [2] it was 8.4 µM.
With `CC(C)C[C@H](NC(=O)[C@H](Cc1ccccc1)NC(=O)c1cnccn1)B(O)O`, the TGI entry with A549 [19] was “inactive”. Besides, in the series with AMO1, the TGI entry is “Active”.
`COCCOc1cccc2c(NCc3ccccc3)nc(-n3c(N)nc4ccccc43)nc12` returned an IC50 in [1] of 0.907 µM.
Turning to `CNc1nc2ccccc2n1-c1nc(NCc2ccccc2)c2cccc(OC)c2n1`, 0.233 µM corresponded to half-maximal inhibition in series [1] (IC50).
Consider `Cc1cc2c(C(=O)N(C)C)cccc2n1-c1nc2c(c(NCc3ccccc3)n1)CNCC2`, for which the IC50 in [1] is > 5 µM.
Take `COc1cc2ccccc2n1-c1nc2c(c(NCc3ccccc3)n1)CCCC2`: the IC50 came to 0.043 µM in series [1] and 7.11 µM in the series on A549 [2].
